Results taken from the NIST ThermoML archive (doi:10.1021/acs.jced.5b01031).
Where “and” joins values, the source holds several entries; their conditions need not be identical. Identical values can stand only once.

Assay: mn = molality of the nth substance listed, in mol/kg
Settings: 81.5 kPa, Liquid; for mass density: Vibrating tube method; for viscosity: Capillary tube (Ostwald / Ubbelohde) method

NCC(=O)O [2-aminoacetic acid] + O
mass density [kg/m3]
Settings	m1 = 0.1001	m1 = 0.1498	m1 = 0.1998	m1 = 0.2497	m1 = 0.2999	m1 = 0.3502	m1 = 0.4005	m1 = 0.45	m1 = 0.4993
303.15 K	998.79	1000.34	1001.88	1003.42	1004.95	1006.44	1007.94	1009.44	1010.87
308.15 K	997.12	–	1000.16	1001.68	1003.19	1004.66	1006.15	1007.62	1009.05
313.15 K	995.14	996.61	998.06	999.5	1000.94	1002.34	1003.74	1005.12	1006.46

C[C@H](N)C(=O)O [(S)-2-aminopropanoic acid] + O
mass density [kg/m3]
Settings	m1 = 0.1001	m1 = 0.1501	m1 = 0.1998	m1 = 0.2502	m1 = 0.3	m1 = 0.3501	m1 = 0.3986	m1 = 0.4493	m1 = 0.4994
303.15 K	998.46	999.85	1001.23	1002.6	1003.96	1005.32	1006.62	1007.97	1009.28
308.15 K	996.83	998.21	999.58	1000.94	1002.29	1003.64	1004.93	1006.27	1007.56
313.15 K	995	996.39	997.76	999.11	1000.45	1001.77	1003.07	1004.36	1005.62

CC(C)[C@H](N)C(=O)O [L-valine] + O
mass density [kg/m3]
Settings	m1 = 0.1004	m1 = 0.1489	m1 = 0.1996	m1 = 0.2497	m1 = 0.3001	m1 = 0.3488	m1 = 0.3995	m1 = 0.4501	m1 = 0.4989
303.15 K	998.27	999.57	1000.84	1002.1	1003.33	1004.55	1005.74	1006.93	1008.09
308.15 K	996.63	997.9	999.16	1000.41	1001.63	1002.84	1004.02	1005.2	1006.34
313.15 K	994.92	996.25	997.55	998.83	1000.05	1001.27	1002.46	1003.61	1004.75

O=C([O-])c1ccccc1.[Na+] [sodium benzoate] + O
Settings	mass density, 303.15 K	mass density, 308.15 K	mass density, 313.15 K	viscosity, 303.15 K	viscosity, 308.15 K	viscosity, 313.15 K
m1 = 0.1011	1001.3 kg/m3 and 1001.31 kg/m3	999.49 kg/m3 and 999.34 kg/m3 and 999.62 kg/m3	997.41 kg/m3 and 997.51 kg/m3	0.845 mPa·s and 0.84 mPa·s	0.757 mPa·s and 0.758 mPa·s	0.686 mPa·s and 0.691 mPa·s
m1 = 0.3088	1012.46 kg/m3 and 1012.49 kg/m3	1010.59 kg/m3 and 1010.54 kg/m3 and 1010.6 kg/m3	1008.16 kg/m3 and 1008.27 kg/m3 and 1008.53 kg/m3	0.92 mPa·s and 0.926 mPa·s and 0.931 mPa·s	0.821 mPa·s and 0.837 mPa·s	0.748 mPa·s and 0.753 mPa·s
m1 = 0.5245	1023.61 kg/m3 and 1023.59 kg/m3 and 1023.51 kg/m3	1021.52 kg/m3 and 1021.61 kg/m3 and 1021.49 kg/m3	1019.94 kg/m3	1.024 mPa·s and 1.013 mPa·s and 1.019 mPa·s	0.918 mPa·s and 0.912 mPa·s	0.806 mPa·s and 0.812 mPa·s and 0.817 mPa·s
